The values that follow come from the supplement of paper PMC10307832.

Test in all cases: relative viability (nuclei count vs DMSO), 5 days (fraction); higher = more cells survive
Compound in experiment [1]: C[C@@]1(C(=O)Nc2ccc(F)nc2)CCCN1c1nc(Nc2cc(C3CC3)n[nH]2)c2cccn2n1 + O=C(c1cc(Cc2n[nH]c(=O)c3ccccc23)ccc1F)N1CCN(C(=O)C2CC2)CC1 [Olaparib] (partner 8 µM)
The procedure, abridged: (§1)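 Medians of duplicate plates are given as relative viability. That measure is the nuclei count in treated wells divided by the count in vehicle wells. Counts were taken on 4× images of lung cancer cell lines in 1536-well plates, 5 days after pin-tool dosing the day after seeding with one drug alone or a fixed anchor-drug dose plus five library-drug doses (not always all listed) in √10 steps.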

Compound in experiment [2]: C[C@@]1(C(=O)Nc2ccc(F)nc2)CCCN1c1nc(Nc2cc(C3CC3)n[nH]2)c2cccn2n1 + Cc1nc(Nc2ncc(C(=O)Nc3c(C)cccc3Cl)s2)cc(N2CCN(CCO)CC2)n1 [Dasatinib] (partner 0.075 µM)
The procedure, abridged:
as §1

Compound in the experiment “Motesanib + Tozasertib”: CC1(C)CNc2cc(NC(=O)c3cccnc3NCc3ccncc3)ccc21 [Motesanib] + Cc1cc(Nc2cc(N3CCN(C)CC3)nc(Sc3ccc(NC(=O)C4CC4)cc3)n2)n[nH]1 [Tozasertib] (partner 0.1 µM)
An outline of the steps:
as §1

Compound in experiment [3]: C[C@@]1(C(=O)Nc2ccc(F)nc2)CCCN1c1nc(Nc2cc(C3CC3)n[nH]2)c2cccn2n1 + CC(C)C[C@H](NC(=O)[C@H](Cc1ccccc1)NC(=O)c1cnccn1)B(O)O [Bortezomib] (partner 0.002 µM)
The procedure, abridged:
as §1

In the case of UMC-11, the relative viability in experiment [1] (first compound 0.04 µM) is 0.376; in experiment [1] (first compound 0.1265 µM) it was 0.316; in experiment [1] (first compound 0.4 µM), 0.336; in experiment [1] (first compound 1.265 µM) it was 0.426; in experiment [2] (first compound 0.04 µM), 0.478; in experiment [2] (first compound 0.1265 µM), 0.471. The relative viability in experiment [2] (first compound 0.4 µM) was 0.399; in experiment [2] (first compound 1.265 µM), 0.278; with Motesanib + Tozasertib (first compound 0.01 µM) it was 0.205; with Motesanib + Tozasertib (first compound 0.03162 µM), 0.213; with Motesanib + Tozasertib (first compound 0.1 µM), 0.216; in the experiment with Motesanib + Tozasertib (first compound 0.3162 µM) it was 0.207. In addition, the relative viability is 0.228 with Motesanib + Tozasertib (first compound 1 µM); 0.79 in experiment [3] (first compound 0.04 µM); 0.829 in experiment [3] (first compound 0.1265 µM); 0.598 in experiment [3] (first compound 0.4 µM); 0.733 in experiment [3] (first compound 1.265 µM).
